The values that follow come from US20260217704A1, “INDOLONE DERIVATIVE HAVING IRAK4 INHIBITORY ACTIVITY, AND PREPARATION METHOD THEREFOR AND USE THEREOF” (DOVETREE MEDICINES UNUS, INC., priority 2023, published 2026).

The target of the test is T1, IRAK4 kinase protein (Homo sapiens, UniProt Q9NWZ3).
T1 sequence (Q9NWZ3 1-460): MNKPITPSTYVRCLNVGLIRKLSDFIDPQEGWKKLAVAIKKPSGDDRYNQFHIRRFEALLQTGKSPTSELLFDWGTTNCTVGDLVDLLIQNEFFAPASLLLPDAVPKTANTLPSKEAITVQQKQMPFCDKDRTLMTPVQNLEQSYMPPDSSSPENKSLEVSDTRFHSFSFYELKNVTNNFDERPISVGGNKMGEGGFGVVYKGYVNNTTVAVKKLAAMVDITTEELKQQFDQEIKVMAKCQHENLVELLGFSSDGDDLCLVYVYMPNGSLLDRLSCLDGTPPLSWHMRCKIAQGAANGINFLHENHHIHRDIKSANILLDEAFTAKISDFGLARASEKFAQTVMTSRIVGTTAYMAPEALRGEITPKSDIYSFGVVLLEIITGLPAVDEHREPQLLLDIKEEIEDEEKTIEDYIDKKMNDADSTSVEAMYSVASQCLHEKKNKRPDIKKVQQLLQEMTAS
The test can be described thus: IRAK4 kinase inhibition assay (Cisbio HTRF KinEASE-STK S1 kit). Type of test: biochemical. As to conditions: IRAK4 10 nM, ATP 200 μM, 37° C. 2 hours, read-out: IRAK4 inhibitory activity IC50. The procedure: Cisbio HTRF KinEASE-STK SI kit (62S1PEB) was used in this experiment. The experiment/detection buffer, STK Substrate 1-biotin, Streptavidin-XL665, and STK Antibody-Crypatete were all contained in the kit.
The compound/DMSO was added to a 384 plate (PerkinElmer 6008280) using Echo 665. Subsequently, 5 μL of IRAK4 kinase protein dissolved in an experimental buffer [1 volume of 5×kinase buffer+20 mM magnesium chloride (Sigma) solution+1 mM DTT (Alfa Aesar) solution+4 volumes of deionized water] at 2 folds reaction concentration was added (final concentration: 10 nM). The shallow well plate was sealed, shaken, and then centrifuged at 1000 rpm for 1 minute and incubated at room temperature for 5 minutes. 5 μL of a 1:1 mixture of STK Substrate 1-biotin (final concentration: 1 μM) and ATP (Sigma A1852) (final concentration: 200 μM) at 2 folds reaction concentration prepared with the experimental buffer was then added. The shallow well plate was sealed, shaken, then centrifuged at 1000 rpm for 1 minute, and incubated at 37° C. for 2 hours. Subsequently, 10 μL of a 1:1 mixed solution of Streptavidin-XL665 (final concentration: 62.5 nM) and STK-antibody-cryptate dissolved with the detection buffer was added. The shallow well plate was sealed, shaken, then centrifuged at 1000 rpm for 1 minute, and incubated at room temperature for 1 hour. Subsequently, numerical values were read at the wavelength of 620 nm/665 nm by a microplate reader. The data were analyzed by Prism 9.3 software, and the IC50 value of IRAK4 kinase inhibition was fitted by four-parameter Logistic equation. After detection, the compound of the present disclosure has a better IRAK4 kinase inhibitory activity.
Take `O=C1Nc2ccc(S(=O)(=O)Nc3ccc(F)cc3)cc2/C1=C/Nc1cnn2cc(N3CCNCC3)ccc12` [Compound 6]: the IC50 lay in the range of 500 to 1000 nM.
On to `O=C1Nc2ccc(S(=O)(=O)Nc3ccc(F)cc3)cc2/C1=C/Nc1cn(C2CCCCC2)nc1C(F)F` [Compound 5], for which the IC50 was below 100 nM.
For `Cc1ccc(/C=C2/C(=O)Nc3ccc(S(=O)(=O)Nc4ccc(F)cc4)cc32)o1` [Compound 1], the half-maximal inhibitory concentration (IC50) was above 1000 nM.
Take `Cc1c(/C=C2\C(=O)Nc3ccc(S(=O)(=O)Nc4ccc(F)cc4)cc32)[nH]c2cc(N3CCNCC3)ccc12` [Compound 8]: the IC50 was below 100 nM.
Regarding `CCNS(=O)(=O)c1ccc2c(c1)/C(=C\c1cc3cc(N4CCNCC4)ccc3o1)C(=O)N2` [Compound 4], the concentration for half-maximal inhibition (IC50) fell in the range of 100 to 500 nM.
For `O=C1Nc2ccc(S(=O)(=O)Nc3ccc(F)cc3)cc2/C1=C/c1cn(C2CCCCC2)nc1C(F)F` [Compound 2], the half-maximal inhibitory concentration (IC50) fell in the range of 100 to 500 nM.
On to `O=C1Nc2ccc(S(=O)(=O)Nc3ccc(F)cc3)cc2/C1=C/c1cc2ccc(N3CCNCC3)cc2[nH]1` [Compound 7], for which the IC50 is below 100 nM.
As for `O=C1Nc2ccc(S(=O)(=O)Nc3ccc(F)cc3)cc2/C1=C\c1cc2cc(N3CCNCC3)ccc2o1` [Compound 3], the figure is below 100 nM.
